Measurements as given in patent US9676818B2, “Toll-like receptor 2-agonistic lipopeptides, and method of making the same” (University of Kansas, priority 2013, dated 2017).
pEC50: −log10 of the molar value. “Also recorded” adds a separate entry of the source. Where two headings read alike, the source gives them in different places. Each block holds one molecule with its values, some of them ahead of it.

Columns and labels:
murine TLR2 = murine TLR2 (Mus musculus (Mouse), UniProt Q9QUN7); assay: murine TLR2-specific NF-κB reporter gene assay (HEK-Blue cells); type: cell-based
Excerpt: The induction of NF-κB in a TLR2-specific reporter gene assay was quantified using HEK-BLUE™ cells as previously described (Wu, W. et al., J. Med. Chem. 2010, 53, 3198-3213). HEK293 cells stably transfected with either human TLR2 or murine TLR2 and alkaline phosphatase (sAP) were obtained from InvivoGen (San Diego, Calif.), and were maintained in HEK-BLUE™ Selection medium containing zeocin and normocin. Stable expression of secreted alkaline phosphatase (sAP) under control of NF-κB promoters is inducible by TLR2 agonists, and extracellular sAP in the supernatant is proportional to NF-κB induction. HEK-Blue cells were incubated at a density of ˜10^5 cells/mL in a volume of 80 μL/well, in 384-well, flat-bottomed, cell culture-treated microtiter plates until confluency was achieved, and then stimulated with serially-diluted aliquots of compounds for 12 h. sAP was assayed spectrophoto-metrically using an alkaline phosphatase-specific chromogen (present in the HEK-detection medium as supplied by the vendor) at 620 nm. […]

human TLR2 = human TLR2 (Homo sapiens (Human), UniProt O60603); assay: human TLR2-specific NF-κB reporter gene assay (HEK-Blue cells); type: cell-based; conditions: for remark beside the EC50 (potency) / EC50: human TLR2-specific reporter gene assay; for EC50: ND = no activity detected at 10 μM, read-out: TLR2-Agonistic Activity (EC50 in nM)
Excerpt: The induction of NF-κB in a TLR2-specific reporter gene assay was quantified using HEK-BLUE™ cells as previously described (Wu, W. et al., J. Med. Chem. 2010, 53, 3198-3213). HEK293 cells stably transfected with either human TLR2 or murine TLR2 and alkaline phosphatase (sAP) were obtained from InvivoGen (San Diego, Calif.), and were maintained in HEK-BLUE™ Selection medium containing zeocin and normocin. Stable expression of secreted alkaline phosphatase (sAP) under control of NF-κB promoters is inducible by TLR2 agonists, and extracellular sAP in the supernatant is proportional to NF-κB induction. HEK-Blue cells were incubated at a density of ˜10^5 cells/mL in a volume of 80 μL/well, in 384-well, flat-bottomed, cell culture-treated microtiter plates until confluency was achieved, and then stimulated with serially-diluted aliquots of compounds for 12 h. sAP was assayed spectrophoto-metrically using an alkaline phosphatase-specific chromogen (present in the HEK-detection medium as supplied by the vendor) at 620 nm. For antagonism assays, HEK-Blue cells were incubated at a density of ˜10^5 cells/mL in a volume of 80 μL/well and stimulated with either PAM2CS (1 μg/mL) or lipoteichoic acid (1 μg/mL) in the presence of graded concentrations of the test compounds as described for TLR7 previously (Shukla, N. M.; et al., Bioorg. Med. Chem. Lett. 2009, 19, 2211-2214; Shukla, N. M. et al., Bioorg. Med. Chem. 2011, 19, 3801-3811).

Aqueous solubility = type: physicochemical
[1] = Stability of aqueous stocks; type: physicochemical
[2] = system: anti-bovine α-lactalbumin IgG responses; assay: Rabbit immunization with bovine α-lactalbumin, antigen-specific IgG ELISA; type: in vivo
Description: All experiments were performed in accordance with institutional guidelines (University of Kansas IACUC permit #119-06) which specifically approved this study. All antigen/adjuvant preparations were entirely aqueous; no liposomal or emulsifying agents were used. Cohorts of adult female New Zealand White rabbits (n=4) were immunized intramuscularly in the flank region with (a) 100 μg of bovine α-lactalbumin in 0.2 mL saline, or (b) 100 μg of bovine α-lactalbumin plus 100 μg of compound 25 in 0.2 mL saline, or (d) 100 μg of bovine α-lactalbumin plus 100 μg of dual TLR2-agonistic PAM2CSK4 (control). Pre-immune test-bleeds were first obtained via venipuncture of the marginal vein of the ear. […] A final test-bleed was performed via the marginal vein of the ear on Day 38. Sera were stored at −80° C. until used.
Bovine α-lactalbumin-specific ELISAs were performed in 384-well format using automated liquid handling methods as described (Shukla, N. M. et al. Bioorg. Med. Chem. Lett. 2011, 21, 3232-3236). Examination of the affinity of antigen-specific IgG using chaotropic ELISA (Pullen, G. R. et al. J. Immunol. Methods 1986, 86, 83-87 and Macdonald, R. A. et al. J. Immunol. Methods 1988, 106, 191-194). […] Plates were then read at 450 nm using a SpectraMax M4 device (Molecular Devices, Sunnyvale, Calif.).

TLR7 = TLR7 (Homo sapiens (Human), UniProt Q9NYK1); assay: primary human TLR-specific reporter gene assay, TLR7 cell line; type: cell-based; conditions: relative to parent compounds
TLR7, sequence (Q9NYK1 27-1049): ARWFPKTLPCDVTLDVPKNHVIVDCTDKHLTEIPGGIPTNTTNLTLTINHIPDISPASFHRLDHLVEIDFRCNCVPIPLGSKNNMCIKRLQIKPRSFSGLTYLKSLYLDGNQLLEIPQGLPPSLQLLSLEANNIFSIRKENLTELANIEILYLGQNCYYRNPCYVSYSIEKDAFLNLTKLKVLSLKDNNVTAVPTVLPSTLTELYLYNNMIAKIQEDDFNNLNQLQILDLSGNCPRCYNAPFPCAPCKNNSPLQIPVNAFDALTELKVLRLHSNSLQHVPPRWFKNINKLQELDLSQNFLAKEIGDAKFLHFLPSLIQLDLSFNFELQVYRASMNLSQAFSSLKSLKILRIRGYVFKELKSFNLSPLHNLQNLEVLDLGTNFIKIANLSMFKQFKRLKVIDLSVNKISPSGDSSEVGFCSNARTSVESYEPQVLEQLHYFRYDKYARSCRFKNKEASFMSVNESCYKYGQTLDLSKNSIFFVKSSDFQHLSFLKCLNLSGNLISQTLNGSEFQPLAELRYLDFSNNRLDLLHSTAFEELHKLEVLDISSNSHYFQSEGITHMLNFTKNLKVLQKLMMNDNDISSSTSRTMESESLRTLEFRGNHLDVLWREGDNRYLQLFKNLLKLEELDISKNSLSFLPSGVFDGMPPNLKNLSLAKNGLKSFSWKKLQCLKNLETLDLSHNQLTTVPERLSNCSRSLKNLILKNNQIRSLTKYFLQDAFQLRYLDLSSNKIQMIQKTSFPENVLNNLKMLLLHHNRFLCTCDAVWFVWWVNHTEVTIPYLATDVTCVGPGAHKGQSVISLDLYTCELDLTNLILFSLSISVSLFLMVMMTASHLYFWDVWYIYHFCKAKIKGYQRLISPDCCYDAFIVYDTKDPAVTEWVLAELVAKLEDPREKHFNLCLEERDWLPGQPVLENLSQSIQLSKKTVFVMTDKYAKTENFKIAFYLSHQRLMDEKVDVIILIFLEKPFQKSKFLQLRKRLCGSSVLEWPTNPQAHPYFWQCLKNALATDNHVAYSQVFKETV

human TLR2, sequence (O60603 21-784): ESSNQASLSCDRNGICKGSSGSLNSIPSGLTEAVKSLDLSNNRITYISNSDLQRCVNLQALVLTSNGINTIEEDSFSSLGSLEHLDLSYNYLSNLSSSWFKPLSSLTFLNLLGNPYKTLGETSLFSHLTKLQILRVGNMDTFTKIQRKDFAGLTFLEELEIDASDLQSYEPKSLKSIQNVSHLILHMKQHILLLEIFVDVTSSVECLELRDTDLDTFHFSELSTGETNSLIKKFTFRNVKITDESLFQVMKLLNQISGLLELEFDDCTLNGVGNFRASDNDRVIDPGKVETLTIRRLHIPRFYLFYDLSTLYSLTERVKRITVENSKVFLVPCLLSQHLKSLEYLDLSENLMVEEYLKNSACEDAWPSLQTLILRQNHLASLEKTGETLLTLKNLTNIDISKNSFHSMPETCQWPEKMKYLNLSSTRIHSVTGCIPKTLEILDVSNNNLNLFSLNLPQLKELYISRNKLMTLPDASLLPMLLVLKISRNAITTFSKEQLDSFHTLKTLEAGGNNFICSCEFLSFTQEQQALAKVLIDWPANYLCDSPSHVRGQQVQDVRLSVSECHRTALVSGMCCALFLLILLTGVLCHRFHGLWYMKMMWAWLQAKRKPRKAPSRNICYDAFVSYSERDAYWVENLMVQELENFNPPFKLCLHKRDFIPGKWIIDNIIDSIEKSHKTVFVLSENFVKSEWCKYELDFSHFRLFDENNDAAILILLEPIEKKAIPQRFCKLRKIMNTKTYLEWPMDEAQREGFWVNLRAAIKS
murine TLR2, sequence (Q9QUN7 25-784): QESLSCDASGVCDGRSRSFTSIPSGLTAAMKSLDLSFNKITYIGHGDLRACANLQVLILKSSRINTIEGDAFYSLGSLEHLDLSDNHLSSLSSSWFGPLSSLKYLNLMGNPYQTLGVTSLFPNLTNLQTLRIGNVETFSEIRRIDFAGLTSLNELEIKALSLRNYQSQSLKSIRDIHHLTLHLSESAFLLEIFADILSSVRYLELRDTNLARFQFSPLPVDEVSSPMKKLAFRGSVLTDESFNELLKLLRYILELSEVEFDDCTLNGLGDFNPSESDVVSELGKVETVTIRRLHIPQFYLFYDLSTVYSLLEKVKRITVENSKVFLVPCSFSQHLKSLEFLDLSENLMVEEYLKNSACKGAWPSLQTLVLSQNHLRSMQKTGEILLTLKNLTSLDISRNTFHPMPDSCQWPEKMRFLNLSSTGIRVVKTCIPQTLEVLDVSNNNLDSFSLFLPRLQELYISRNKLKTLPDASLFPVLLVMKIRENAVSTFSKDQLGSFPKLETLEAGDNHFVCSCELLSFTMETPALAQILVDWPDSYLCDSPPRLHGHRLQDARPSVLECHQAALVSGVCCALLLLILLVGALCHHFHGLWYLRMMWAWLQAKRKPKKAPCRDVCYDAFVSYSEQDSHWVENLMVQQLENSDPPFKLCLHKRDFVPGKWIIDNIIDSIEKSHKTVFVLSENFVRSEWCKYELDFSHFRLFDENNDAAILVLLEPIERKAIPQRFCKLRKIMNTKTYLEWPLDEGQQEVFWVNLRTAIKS

- pEC50 (human TLR2; hTLR2 reporter gene assay, read-out: EC50 in engaging hTLR2): 8.44
- remark beside the EC50 (potency) (human TLR2): Low potency
- water solubility (Aqueous solubility): water-soluble
Molecule: CCCCCCCCCCCCCCCC(=O)OCCSC[C@H](N)C(=O)N[C@@H](CO)C(=O)OC [Compound 6d]
- agonistic activity in mTLR2 / specificity for hTLR2 (murine TLR2): activating human TLR2 (hTLR2), but not murine TLR2 (mTLR2); also recorded: entirely inactive

- agonistic activity in mTLR2 / specificity for hTLR2 (murine TLR2): entirely inactive
- remark beside the EC50 (potency) (human TLR2): Low potency
- EC50 (human TLR2): 4.79 nM
Molecule: CCCCCCCCCCCCCCCCCC(=O)OCCSC[C@H](N)C(=O)N[C@@H](CO)C(=O)OC [Compound 6e, 2-(((R)-2-amino-3-(((S)-3-hydroxy-1-methoxy-1-oxopropan-2-yl)amino)-3-oxopropyl)thio)ethyl stearate]

- EC50 (human TLR2): 0.225 nM
- water solubility (Aqueous solubility): highly water soluble
Molecule: CCCCCCCCCCCCCCCC(=O)OCCSC[C@H](NC(C)=O)C(=O)N[C@@H](CCCCN)C(=O)OC [Compound 23, 2-(((R)-2-Acetamido-3-(((S)-6-amino-1-methoxy-1-oxohexan-2-yl)amino)-3-oxopropyl)thio)ethyl palmitate]
- stability of aqueous stocks [1]: significant loss of activity of aqueous stocks within about a week

- EC50 (human TLR2): 6.81 nM
- water solubility (Aqueous solubility): exceptionally water soluble
- stability of aqueous stocks [1]: unstable
Molecule: CCCCCCCCCCCCCCCC(=O)OCCSC[C@H](NC(C)=O)C(=O)N[C@@H](COC(=O)[C@@H](N)CCCCN)C(=O)OC.Cl.Cl [Compound 25, 2-(((R)-2-Acetamido-3-(((S)-3-(((S)-2,6-diaminohexanoyl)oxy)-1-methoxy-1-oxopropan-2-yl)amino)-3-oxopropyl)thio)ethyl palmitate]
- induction of anti-bovine α-lactalbumin IgG responses ([2]; rabbits, prime+single-boost model, FIG. 2): excellent induction

- EC50 (human TLR2): 0.279 nM
- water solubility (Aqueous solubility): restored
Molecule: CCCCCCCCCCCCCCCCOC(=O)NCCSC[C@H](NC(C)=O)C(=O)N[C@@H](CO)C(=O)NCCCN(C)C [Compound 52, Hexadecyl ((8S,11R)-11-acetamido-8-(hydroxymethyl)-2-methyl-7,10-dioxo-13-thia-2,6,9-triazapentadecan-15-yl)carbamate]

- hTLR2-agonistic activity in words (human TLR2; hTLR2 reporter gene assay): less active than their parent compounds
- EC50 (human TLR2): 221 nM
- activity in TLR7 cell line (TLR7): less active than their parent compounds
Molecule: CCCCCCCCCCCCCCCCOC(=O)NCCSC[C@H](NC(C)=O)C(=O)N[C@@H](CO)C(=O)NCc1ccc(Cn2c(CCCC)nc3c(N)nc4ccccc4c32)cc1 [Compound 54, Hexadecyl(2-(((R)-2-acetamido-3-(((S)-1-((4-((4-amino-2-butyl-1H-imidazo[4,5-c]quinolin-1-yl)methyl)benzyl)amino)-3-hydroxy-1-oxopropan-2-yl)amino)-3-oxopropyl)thio)ethyl)carbamate]

Molecule: PAM2CSK4 [reference compound]
- adjuvanticity ([2]; New Zealand White rabbits, direct comparison with glucopyranosyl lipid A): highly adjuvantic
